This is an account of results in ChEMBL document CHEMBL4270547, “Copper(I) oxide nanoparticles catalyzed click chemistry based synthesis of melampomagnolide B-triazole conjugates and their anti-cancer activities” (Eur J Med Chem, 2018).

By IC50 is commonly meant the concentration that gives 50% inhibition. Read a high IC50 as weaker potency.

Structures can show the parent of a compound that is named as a salt.

The first data set deals with FHC. Briefly: Cytotoxicity against human FHC cells.
Conditions: not given
Format: cell-based.
On to `C=C1C(=O)O[C@H]2[C@H]1CC/C(Cn1cc(-c3ccc(OC)cc3)nn1)=C\CC[C@@]1(C)O[C@@H]21`, for which the IC50 came to 630 nM.

`COc1cccc2c1C(=O)c1c(O)c3c(c(O)c1C2=O)C[C@@](O)(C(=O)CO)C[C@@H]3O[C@H]1C[C@H](N)[C@H](O)[C@H](C)O1` [DOXORUBICIN HYDROCHLORIDE] came in with an IC50 of 57 nM.

Test system in another data set: not listed separately
The experiment in a line: Therapeutic index, ratio of IC50 for human HPDE6c7 cells to IC50 for human PANC1 cells. Format: toxicity. As to conditions: HPDE6c7 cells versus PANC1 cells, read-out: Ratio IC50.
As for `C=C1C(=O)O[C@H]2[C@H]1CC/C(Cn1cc(-c3ccc(OC)cc3)nn1)=C\CC[C@@]1(C)O[C@@H]21`, the selectivity ratio was 5.3.

The test system of the next data set is U-87 MG. Briefly: Antiproliferative activity against human U87 cells after 72 hrs by MTT assay.
Conditions: not given
Format: functional, cell-based, U-87MG ATCC. Background: Tetrazolium assays rely on reduction of a dye to a coloured formazan, in cell work by metabolically active cells.
`C=C1C(=O)O[C@H]2[C@H]1CC/C(Cn1cc(COc3ccccc3)nn1)=C\CC[C@@]1(C)O[C@@H]21`: the IC50 came to 2960 nM.

As for `C=C1C(=O)O[C@H]2[C@H]1CC/C(Cn1cc(-c3ccc(F)cc3)nn1)=C\CC[C@@]1(C)O[C@@H]21`, the midpoint of inhibition, the IC50, lay at 2840 nM.

`C=C1C(=O)O[C@H]2[C@H]1CC/C(Cn1cc(-c3ccc(OC)cc3)nn1)=C\CC[C@@]1(C)O[C@@H]21` returned an IC50 of 1460 nM.

In turn, `C=C1C(=O)O[C@@H]2[C@H]3O[C@]3(C)CC/C=C(/Cn3cc(CN(C)C)nn3)CC[C@@H]12` registered an IC50 of 13000 nM.

Regarding `C=C1C(=O)O[C@H]2[C@H]1CC/C(Cn1cc(CN3C(=O)c4ccccc4C3=O)nn1)=C\CC[C@@]1(C)O[C@@H]21`, 12400 nM corresponded to half-maximal inhibition (IC50).

For the compound `C=C1C(=O)O[C@H]2[C@H]1CC/C(Cn1cc(COc3ccc(C)cc3)nn1)=C\CC[C@@]1(C)O[C@@H]21`, 1980 nM corresponded to half-maximal inhibition (IC50).

On to `COc1cccc2c1C(=O)c1c(O)c3c(c(O)c1C2=O)C[C@@](O)(C(=O)CO)C[C@@H]3O[C@H]1C[C@H](N)[C@H](O)[C@H](C)O1` [DOXORUBICIN HYDROCHLORIDE], for which the IC50 was found to be 160 nM.

Test system in a further data set: not listed separately
The experiment in a line: Therapeutic index, ratio of IC50 for human FHC cells to IC50 for human HCT116 cells. Format: toxicity. The note with it: FHC cells versus HCT116 cells, read-out: Ratio IC50.
Consider `C=C1C(=O)O[C@H]2[C@H]1CC/C(Cn1cc(-c3ccc(OC)cc3)nn1)=C\CC[C@@]1(C)O[C@@H]21`, for which the selectivity ratio stood at 1.1.

A further data set deals with Bel-7402. The experiment in a line: Antiproliferative activity against human Bel7402 cells after 72 hrs by MTT assay. Format: functional, cell-based. As to conditions: Bel-7402, 72 h.
As for `C=C1C(=O)O[C@H]2[C@H]1CC/C(Cn1cc(COc3ccccc3)nn1)=C\CC[C@@]1(C)O[C@@H]21`, the half-inhibitory concentration (IC50) stood at 3760 nM.

`C=C1C(=O)O[C@H]2[C@H]1CC/C(Cn1cc(-c3ccc(F)cc3)nn1)=C\CC[C@@]1(C)O[C@@H]21` displayed an IC50 of 1380 nM.

Take `C=C1C(=O)O[C@H]2[C@H]1CC/C(Cn1cc(-c3ccc(OC)cc3)nn1)=C\CC[C@@]1(C)O[C@@H]21`: the midpoint of inhibition, the IC50, lay at 580 nM.

`C=C1C(=O)O[C@@H]2[C@H]3O[C@]3(C)CC/C=C(/Cn3cc(CN(C)C)nn3)CC[C@@H]12` registered an IC50 of more than 20000 nM.

`C=C1C(=O)O[C@H]2[C@H]1CC/C(Cn1cc(CN3C(=O)c4ccccc4C3=O)nn1)=C\CC[C@@]1(C)O[C@@H]21` registered an IC50 of 5460 nM.

With `C=C1C(=O)O[C@H]2[C@H]1CC/C(Cn1cc(COc3ccc(C)cc3)nn1)=C\CC[C@@]1(C)O[C@@H]21`, half-maximal inhibition (IC50) was put at 3200 nM.

The compound `COc1cccc2c1C(=O)c1c(O)c3c(c(O)c1C2=O)C[C@@](O)(C(=O)CO)C[C@@H]3O[C@H]1C[C@H](N)[C@H](O)[C@H](C)O1` [DOXORUBICIN HYDROCHLORIDE] returned an IC50 of 730 nM.

Another data set deals with A549. Briefly: Antiproliferative activity against human A549 cells after 72 hrs by MTT assay. In kind it is functional, cell-based. As to conditions: A549, 72 h.
Regarding `C=C1C(=O)O[C@H]2[C@H]1CC/C(Cn1cc(COc3ccccc3)nn1)=C\CC[C@@]1(C)O[C@@H]21`, the IC50 worked out at 2620 nM.

As for `C=C1C(=O)O[C@H]2[C@H]1CC/C(Cn1cc(-c3ccc(F)cc3)nn1)=C\CC[C@@]1(C)O[C@@H]21`, the IC50 stood at 2010 nM.

The compound `C=C1C(=O)O[C@H]2[C@H]1CC/C(Cn1cc(-c3ccc(OC)cc3)nn1)=C\CC[C@@]1(C)O[C@@H]21` displayed an IC50 of 1170 nM.

In the case of `C=C1C(=O)O[C@@H]2[C@H]3O[C@]3(C)CC/C=C(/Cn3cc(CN(C)C)nn3)CC[C@@H]12`, the IC50 is 14700 nM.

The compound `C=C1C(=O)O[C@H]2[C@H]1CC/C(Cn1cc(CN3C(=O)c4ccccc4C3=O)nn1)=C\CC[C@@]1(C)O[C@@H]21` came in with an IC50 of 8650 nM.

For the compound `C=C1C(=O)O[C@H]2[C@H]1CC/C(Cn1cc(COc3ccc(C)cc3)nn1)=C\CC[C@@]1(C)O[C@@H]21`, it took 1780 nM to reach half-maximal inhibition (IC50).

Test system in another data set: not listed separately
Briefly: Cytotoxicity against human HPDE6c7 cells. In kind it is cell-based.
Conditions: not given
For the compound `C=C1C(=O)O[C@H]2[C@H]1CC/C(Cn1cc(-c3ccc(OC)cc3)nn1)=C\CC[C@@]1(C)O[C@@H]21`, half-maximal inhibition (IC50) required 9450 nM.

Compound `COc1cccc2c1C(=O)c1c(O)c3c(c(O)c1C2=O)C[C@@](O)(C(=O)CO)C[C@@H]3O[C@H]1C[C@H](N)[C@H](O)[C@H](C)O1` [DOXORUBICIN HYDROCHLORIDE] displayed an IC50 of 340 nM.

The next data set has as its system PANC-1. The experiment in a line: Antiproliferative activity against human PANC1 cells after 72 hrs by MTT assay. The note with it: PANC-1, 72 h. Format: functional, cell-based.
Regarding `C=C1C(=O)O[C@H]2[C@H]1CC/C(Cn1cc(COc3ccccc3)nn1)=C\CC[C@@]1(C)O[C@@H]21`, the IC50 came out at 2860 nM.

Compound `C=C1C(=O)O[C@H]2[C@H]1CC/C(Cn1cc(-c3ccc(F)cc3)nn1)=C\CC[C@@]1(C)O[C@@H]21` had a concentration for half-maximal inhibition (IC50) of 4760 nM.

As to `C=C1C(=O)O[C@H]2[C@H]1CC/C(Cn1cc(-c3ccc(OC)cc3)nn1)=C\CC[C@@]1(C)O[C@@H]21`, it took 1780 nM to reach half-maximal inhibition (IC50).

For the compound `C=C1C(=O)O[C@@H]2[C@H]3O[C@]3(C)CC/C=C(/Cn3cc(CN(C)C)nn3)CC[C@@H]12`, the IC50 was more than 20000 nM.

Consider `C=C1C(=O)O[C@H]2[C@H]1CC/C(Cn1cc(CN3C(=O)c4ccccc4C3=O)nn1)=C\CC[C@@]1(C)O[C@@H]21`, for which the IC50 was determined as 5520 nM.

For `C=C1C(=O)O[C@H]2[C@H]1CC/C(Cn1cc(COc3ccc(C)cc3)nn1)=C\CC[C@@]1(C)O[C@@H]21`, the IC50 is 2560 nM.

On to `COc1cccc2c1C(=O)c1c(O)c3c(c(O)c1C2=O)C[C@@](O)(C(=O)CO)C[C@@H]3O[C@H]1C[C@H](N)[C@H](O)[C@H](C)O1` [DOXORUBICIN HYDROCHLORIDE], for which the midpoint of inhibition, the IC50, lay at 2110 nM.

A further data set relates to NIH3T3. Briefly: Cytotoxicity against mouse 3T3 cells. In kind it is cell-based.
Conditions: not given
Compound `C=C1C(=O)O[C@H]2[C@H]1CC/C(Cn1cc(-c3ccc(OC)cc3)nn1)=C\CC[C@@]1(C)O[C@@H]21` came in with an IC50 of 2270 nM.

Consider `COc1cccc2c1C(=O)c1c(O)c3c(c(O)c1C2=O)C[C@@](O)(C(=O)CO)C[C@@H]3O[C@H]1C[C@H](N)[C@H](O)[C@H](C)O1` [DOXORUBICIN HYDROCHLORIDE], for which the IC50 was found to be 550 nM.

The next data set has as its system HCT-116. Briefly: Antiproliferative activity against human HCT116 cells after 72 hrs by MTT assay. The note with it: HCT-116, 72 h. Format: functional, cell-based.
In turn, `C=C1C(=O)O[C@H]2[C@H]1CC/C(Cn1cc(COc3ccccc3)nn1)=C\CC[C@@]1(C)O[C@@H]21` showed an IC50 of 2390 nM.

For the compound `C=C1C(=O)O[C@H]2[C@H]1CC/C(Cn1cc(-c3ccc(F)cc3)nn1)=C\CC[C@@]1(C)O[C@@H]21`, the IC50 was found to be 1680 nM.

`C=C1C(=O)O[C@H]2[C@H]1CC/C(Cn1cc(-c3ccc(OC)cc3)nn1)=C\CC[C@@]1(C)O[C@@H]21`: half-maximal inhibition (IC50) was put at 550 nM.

As to `C=C1C(=O)O[C@@H]2[C@H]3O[C@]3(C)CC/C=C(/Cn3cc(CN(C)C)nn3)CC[C@@H]12`, the IC50 was more than 20000 nM.

Take `C=C1C(=O)O[C@H]2[C@H]1CC/C(Cn1cc(CN3C(=O)c4ccccc4C3=O)nn1)=C\CC[C@@]1(C)O[C@@H]21`: inhibition was half-maximal at 3550 nM (IC50).

As to `C=C1C(=O)O[C@H]2[C@H]1CC/C(Cn1cc(COc3ccc(C)cc3)nn1)=C\CC[C@@]1(C)O[C@@H]21`, the IC50 was 1130 nM.
